Experimental data taken from patent US10391071B2, “Compositions comprising valerian extracts” (Cutech SRL, priority 2015, dated 2019).

What was measured:
[1] = test system: human sebaceous glands (hSGs); assay: Sebum content in ex-vivo cultured human sebaceous glands (hSGs), lipids normalized to proteins; assay type: cell-based
Description: The following examples are intended to show the modulation of sebum production exerted by the experimental preparations on human sebaceous glands (hSGs) microdissected and cultivated up to day 6. At the end of the culture time, the sebum is extracted and quantified from each experimental group of hSGs and then normalized by the proteins extracted from the residual hSG material (mg lipids/mg proteins). As a result, the biological activity of the tested compounds is inferred by comparing the lipids/proteins ratio of the treated glands with that of the control group. A detailed methodology is reported in EP14179936.1 (Cutech Srl) The adopted experimental model is based on the cultivation of ex-vivo hSGs at constant concentrations of valerian extracts or purified derivatives. This experimental condition is not reproducible in vivo since both topical and oral administration produce fluctuating concentrations, depending on the frequency and composition of the treatment. […] The control group was cultured in standard medium, whereas a 5 μM Capsaicin treatment was included in the experimental design as positive control. Capsaicin is an active component of chili peppers suitable to inhibit sebogenesis [Tóth et al., 2009, J. Invest. Derm. 129: 329-339]. The effect of the treatment was evaluated by assessing the amounts of normalized lipids obtained from the treated groups, i.e. the quantitive ratio beween sebum lipids and proteins extracted from each group of hSGs (mg of lipids/mg of proteins), with respect to the value obtained from the control group. The results were expressed in percentage values, assuming the normalized lipids obtained from the control group as reference value (100%).

human skin subcutis = assay: Normalized total lipids in subcutis of ex-vivo cultured full-thickness human skin; assay type: cell-based; conditions: for Total lipid content in skin subcutis samples, % ratio of the control group performance (Average): Table 9, abdominal skin, six days of organ culture (five of treatment)
Description: The reported examples from 19 to 23 are intended to show the modulation of adipocyte lipid content exerted by the experimental preparations on human skin subcutis. Full-thickness ex-vivo human skin samples, including the subcutis, were ex-vivo cultured and treated with compounds obtained from valerian extract, i.e. valerenic acid (VA) and pentanoic acid (AP), in order to evaluate their activity on the lipid metabolism.
The responses of the treated tissues, in comparison to the untreated group, were evaluated after 6 days of culture, by isolating the subcutis of each skin sample and then estimating its normalized content in total lipids.
Cylindrical pieces (7 mm in diameter) of full thickness human skin were excised from an abdominal skin sample paying attention to preserve the subcutis. These organ samples were seeded in 24-well plates at a density of 1 sample/well with 500 μl of culture medium, and cultured up to day 6. The samples submitted to experimental treatments received medium supplemented with VA at 0.5, 5 and 50 μM or PA at 0.2 and 2 μM. After the first day of culture, the samples were arranged in experimental groups including 4 samples each one. The control group received modified William E medium, while the samples submitted to experimental treatments received the same medium supplemented with the extracts. The culture medium was renewed every other day. After six days of organ culture (five of treatment), the subcutis of each skin sample was separated from the dermis and its total content of lipids and proteins was quantified. […] As a result, when lipogenesis is stimulated, an increase in the “total lipids/total proteins ratio”, hereinafter defined “normalized total lipids”, is expected, while the contrary occurs in the case of increased lipolysis.
The analytical protocol adopted to detect values of “normalized total lipids” is described below: • each subcutis sample was homogenized in 1 ml of isopropyl alcohol; • the sample was centrifuged at 14,000 G for 5 minutes and then the supernatant (containing the extracted lipids) was collected; • the supernatant was diluted 10 fold with isopropyl alcohol; • the diluted lipid extract was analysed with a Direct Detect IR Spectrometer (Millipore), which provided the total lipid concentration of the supernatant (mg/ml); • the total lipids of the subcutis sample was quantified multiplying the supernatant lipid concentration (indention 4) by the preliminary dilution factor (indention 3) and then by the volume of isopropyl alcohol used for the lipid extraction (indention 1); • the residual pellet obtained from indention 2 was washed with 1 ml of isopropyl alcohol and, after another centrifugation this solvent was withdrawn; • the pellet was dried in a vacuum dry evaporator and then homogenized in 100 ul of proteolytic buffer (20 mM Tris HCI pH 7.5, 150 mM NaCl, 2 mM EDTA, 0.5% Triton X-100, 2 mM DTT, 1% protease inhibitor cocktail); • the extractive mixture was centrifuged at 14,000 G for 10 minutes and the supernatant was collected and analysed with a Direct Detect IR Spectrometer (Millipore), which provided the total protein concentration of the supernatant (mg/ml); • the obtained total protein concentration was multiplied by the extractive volume (indention 7) in order to quantify the total proteins of the subcutis sample; • the total lipids (indention 5) were divided by the total proteins (indention 9) in order to obtain the amount of lipids per mg of proteins relative to the processed subcutis sample.

[2] = Table 1, scalp sample donor, 6 days culture, 5 μM

Structure (SMILES): COc1cc(CNC(=O)CCCC/C=C/C(C)C)ccc1O [Capsaicin, reference compound]
- reduction of sebum content of the hSGs in comparison with the control group ([1]; Examples 1 to 4 donor, positive control 5 μM): 17%
- reduction of hSGs sebum content in comparison with the control group ([1]; Examples 5 to 7 donor, positive control 5 μM): 10%
- response of sebum production versus control ([1]; Examples 22 to 25, positive control 5 μM): −17%
- Sebum content in hSGs, % ratio of the control group performance (Average) [1, 2]: 83.3%
- Sebum content in hSGs, % ratio of the control group performance (Average) ([1]; Table 2, another donor, 5 μM): 90.2%
- Sebum content in hSGs, % ratio of the control group performance (Average) ([1]; Table 4, another donor, 5 μM): 37.2%
- Sebum content in hSGs, % ratio of the control group performance (Average) ([1]; Table 5, 5 μM): 45.6%
- Sebum content in hSGs, % ratio of the control group performance (Average) ([1]; Table 6, same donor, 5 μM): 59.2%
- Sebum content in hSGs, % ratio of the control group performance (Average) ([1]; Table 7, 5 μM): 83.0%
- Total lipid content in skin subcutis samples, % ratio of the control group performance (Average) (human skin subcutis; 5 μM): 73.6%

Structure (SMILES): CCCCC(=O)O [PA, pentanoic acid]
- Sebum content in hSGs, % ratio of the control group performance (Average) ([1]; Table 5, 0.2 mM): 57.3%
- Sebum content in hSGs, % ratio of the control group performance (Average) ([1]; Table 5, 2 mM): 65.6%
- Sebum content in hSGs, % ratio of the control group performance (Average) ([1]; Table 6, same donor, 0.02 mM): 62.5%
- Sebum content in hSGs, % ratio of the control group performance (Average) ([1]; Table 6, same donor, 0.2 mM): 60.9%
- Sebum content in hSGs, % ratio of the control group performance (Average) ([1]; Table 6, same donor, 2.0 mM): 75.4%
- Total lipid content in skin subcutis samples, % ratio of the control group performance (Average) (human skin subcutis; 0.2 μM): 82.6%
- Total lipid content in skin subcutis samples, % ratio of the control group performance (Average) (human skin subcutis; 2.0 μM): 91.6%
- reduction in total lipid content of skin subcutis (human skin subcutis; concentration not given): 17.8%

Structure (SMILES): CC1=C2[C@H](/C=C(\C)C(=O)O)CC[C@@H](C)[C@H]2CC1 [VA, valerenic acid]
- reduction of sebum content in the hSGs ([1]; Examples 1 to 4 donor, 0.5 μM): 26%
- concentration range producing sebogenesis inhibition (very effective) ([1]; Examples 5 to 7 donor): 0.05 to 5 µM
- reduction of sebogenesis (change versus control) ([1]; Examples 26 to 27, 0.5 μM): −29%
- Sebum content in hSGs, % ratio of the control group performance (Average) ([1]; Table 1, scalp sample donor, 6 days culture, 0.05 μM): 98.9%
- Sebum content in hSGs, % ratio of the control group performance (Average) ([1]; Table 1, scalp sample donor, 6 days culture, 0.5 μM): 74.2%
- Sebum content in hSGs, % ratio of the control group performance (Average) [1, 2]: 88.0%
- Sebum content in hSGs, % ratio of the control group performance (Average) ([1]; Table 1, scalp sample donor, 6 days culture, 50 μM): 88.6%
- Sebum content in hSGs, % ratio of the control group performance (Average) ([1]; Table 2, another donor, 0.05 μM): 85.6%
- Sebum content in hSGs, % ratio of the control group performance (Average) ([1]; Table 2, another donor, 0.5 μM): 61.2%
- Sebum content in hSGs, % ratio of the control group performance (Average) ([1]; Table 2, another donor, 5 μM): 88.5%
- Sebum content in hSGs, % ratio of the control group performance (Average) ([1]; Table 3, another donor, 0.05 μM): 75.0%
- Sebum content in hSGs, % ratio of the control group performance (Average) ([1]; Table 3, another donor, 0.5 μM): 89.0%
- Sebum content in hSGs, % ratio of the control group performance (Average) ([1]; Table 4, another donor, 0.05 μM): 54.1%
- Sebum content in hSGs, % ratio of the control group performance (Average) ([1]; Table 4, another donor, 0.5 μM): 63.9%
- Sebum content in hSGs, % ratio of the control group performance (Average) ([1]; Table 6, same donor, 0.05 μM): 41.4%
- Sebum content in hSGs, % ratio of the control group performance (Average) ([1]; Table 6, same donor, 0.5 μM): 50.4%
- Sebum content in hSGs, % ratio of the control group performance (Average) ([1]; Table 6, same donor, 5 μM): 70.7%
- Sebum content in hSGs, % ratio of the control group performance (Average) ([1]; Table 8, 0.5 μM): 71.4%
- response of lipid content in the skin subcutis versus control (human skin subcutis; 5.0 μM): −44.7%
- Total lipid content in skin subcutis samples, % ratio of the control group performance (Average) (human skin subcutis; 0.5 μM): 63.9%
- Total lipid content in skin subcutis samples, % ratio of the control group performance (Average) (human skin subcutis; 5 μM): 55.3%
- Total lipid content in skin subcutis samples, % ratio of the control group performance (Average) (human skin subcutis; 50.0 μM): 59.0%
